According to paper PMC4113814, “Bioactive Cembrane Derivatives from the Indian Ocean Soft Coral, Sinularia kavarattiensis” (Marine Drugs, 2014):
Values after ≈ are worked out from the molar mass of the structure shown.

How the values were obtained:
IL-1β = IL-1β release in supernatants of LPS-treated primary microglial cells (ELISA); type: cell-based, Wistar rats; details: 72 h; for IL-1β release: LPS-treated; for IC50: Rattus norvegicus, inhibition of LPS-induced cytokine release, read-out: IL-1β IC50
Experimental: (§1) Primary microglial cell cultures were prepared from brains of newborn Wistar rats. Ethics approval for the experiments was granted by the EBIOTEC Review Board (Valter Lombardi, Iván Carrera and Lucía Fernández-Novoa; Project Identification Code: Sinularia Project October 2013; approved 30 October 2013). The neocortex of one-day-old postnatal rats was aseptically dissected out, and the meninges and blood vessels were carefully removed. Following cutting in a medium containing 20% horse serum, the suspension was filtered through a […] and transferred as a single cell suspension to culture dishes, using 5.0 mL of medium per dish. The cultures were incubated at 37 °C in an atmosphere containing 5% CO2. The culture medium consisted of Minimum Essential Medium Eagle, supplemented with L-glutamine, amino acids, vitamins, penicillin, gentamicin, sodium bicarbonate and 20% heat-inactivated horse serum. The medium was changed twice a week. After 1 week, the concentration of horse serum was reduced to 10%. After sixteen days in culture, cells were treated with 1 μg/mL of lipopolysaccharide (LPS). […] Positive controls were treated only with LPS, while negative controls were treated with complete medium. After 72 h of incubation, cells were counted, and 2.5 mL of the supernatants were collected from each well and frozen at −40 °C for cytokine analyses. All experiments were carried out twice.
(§2) The supernatants obtained from cell cultures were analyzed for TNF-α, IL-1β, IL-4, IL-6, IL-8, IL-10 and IL-18 using commercially available ELISA kits following the manufacturers’ instructions. All samples were assayed in duplicate, and equivocal results were repeated. The cytokine concentration was calculated from a standard curve of the corresponding recombinant cytokine.
(§3) The cytotoxicity of the compounds was measured by the colorimetric methyl thiazol tetrazolium (MTT) assay and scored as a percentage of the absorbance reduction of treated cultures versus untreated control cultures. Primary microglial cell cultures were seeded into 96-well microplates at 10^4 cells per well and allowed to grow for 24 h. […] The compounds were serially diluted in complete culture medium with two-fold dilutions (100, 50, 25, 12.5, 6.25, 3.12 and 1.56 μg/mL for in vitro cytotoxicity; 12.5, 6.25, 3.12, 1.56, 0.78 and 0.39 μg/mL for cytokine release). Different concentrations of the compounds were added to each well, and Tamoxifen was used as a positive control, with concentrations ranging from 50 to 1.56 μg/mL. Plates were incubated at 37 °C for 72 h under 5% CO2 atmosphere. Then, the 50 μL of MTT-PBS solution in culture medium were added to each well. The plates were further incubated for 4 h under the same conditions. The medium was then removed and replaced with 200 μL of DMSO to solubilize the MTT formazan product. The solutions were shaken for 20 min, and the absorbance was measured at 570 nm. […] Each value represents the mean of triplicate determinations. The IC50 values were calculated from the compound concentration-response curves.

IL-8 = IL-8 release in supernatants of LPS-treated primary microglial cells (ELISA); type: cell-based, Wistar rats; details: 72 h; for IL-8 release: LPS-treated; for IC50: Rattus norvegicus, inhibition of LPS-induced cytokine release, read-out: IL-8 IC50
Experimental: as §1, §2, §3

IL-18 = IL-18 release in supernatants of LPS-treated primary microglial cells (ELISA); type: cell-based, Wistar rats; details: 72 h; for IL-18 release: LPS-treated; for IC50: Rattus norvegicus, inhibition of LPS-induced cytokine release, read-out: IL-18 IC50
Experimental: as §1, §2
as §3, with “The compounds were serially diluted in complete culture medium with two-fold dilutions (100, 50, 25, 12.5, 6.25, 3.12 and 1.56 μg/mL for in vitro cytotoxicity; 12.5, 6.25, 3.12, 1.56, 0.78 and 0.39 μg/mL for cytokine release).” left out

TNF-α = TNF-α release in supernatants of LPS-treated primary microglial cells (ELISA); type: cell-based, Wistar rats; details: 72 h; for TNF-α release: LPS-treated; for IC50: Rattus norvegicus, inhibition of LPS-induced cytokine release, read-out: TNF-α IC50
Experimental: as §1, §2, §3

IL-4 = IL-4 release in supernatants of LPS-treated primary microglial cells (ELISA); type: cell-based, Wistar rats; details: 72 h; for IL-4 release: LPS-treated; for IC50: Rattus norvegicus, inhibition of LPS-induced cytokine release, read-out: IL-4 IC50
Experimental: as §1, §2
as §3, with “The compounds were serially diluted in complete culture medium with two-fold dilutions (100, 50, 25, 12.5, 6.25, 3.12 and 1.56 μg/mL for in vitro cytotoxicity; 12.5, 6.25, 3.12, 1.56, 0.78 and 0.39 μg/mL for cytokine release).” left out

CHIKV replicon [1] = details: summary statement
BHK-CHIKV-NCT cells [2] = experiment: Cytotoxicity assay by ATP quantitation (CellTiter GLO); details: 100 μM, cell concentration lowered to 3000 cells/well
CHIKV replicon [3] = experiment: CHIKV replicon assay, Cell-IQ live cell imaging, EGFP fluorescence intensity; details: 50 and 100 μM, 48 h
BHK-CHIKV-NCT cells [4] = experiment: Cell-IQ live cell imaging, cytotoxicity by cell classification (viable cells); details: 100 μM, 48 h, 3000 cells/well

Row | Structure (SMILES) | IL-1β release (IL-1β; C1: 1.0 μg/mL) [pg/mL] | IL-1β release (IL-1β; C2: 2.5 μg/mL) [pg/mL] | IL-1β release (IL-1β; C3: 5.0 μg/mL) [pg/mL] | IC50 (IL-1β) [µg/mL] | IL-8 release (IL-8; C1: 1.0 μg/mL) [pg/mL] | IL-8 release (IL-8; C2: 2.5 μg/mL) [pg/mL] | IL-8 release (IL-8; C3: 5.0 μg/mL) [pg/mL] | IC50 (IL-8) [µg/mL] | IL-18 release (IL-18; C1: 1.0 μg/mL) [pg/mL] | IL-18 release (IL-18; C2: 2.5 μg/mL) [pg/mL] | IL-18 release (IL-18; C3: 5.0 μg/mL) [pg/mL] | IC50 (IL-18) [µg/mL] | TNF-α release (TNF-α; C1: 1.0 μg/mL) [pg/mL] | TNF-α release (TNF-α; C2: 2.5 μg/mL) [pg/mL] | TNF-α release (TNF-α; C3: 5.0 μg/mL) [pg/mL] | IC50 (TNF-α) [µg/mL] | IL-4 release (IL-4; C1: 1.0 μg/mL) [pg/mL] | IL-4 release (IL-4; C2: 2.5 μg/mL) [pg/mL] | IL-4 release (IL-4; C3: 5.0 μg/mL) [pg/mL] | IC50 (IL-4) [µg/mL] | also measured
1 | C=C(C)[C@@H]1C/C=C2\C(=O)O[C@@H](C[C@]3(C)CC(=O)[C@@H](CC(=O)C1)O3)[C@@H]2O [Compound 2, sinuleptolide] | 1.08 ± 0.02 | 0.07 ± 0.04 | 0.08 ± 0.06 | 0.5 (≈ 1.44 µM) | 249 ± 13 | 123 ± 11 | 108 ± 9 | 2.3 (≈ 6.6 µM) | 326 ± 4.9 | 187 ± 14 | 155 ± 11 | 2.9 (≈ 8.32 µM) | 34.1 ± 9.1 | 12.3 ± 3.4 | 9.8 ± 3.3 | 1.7 (≈ 4.88 µM) | 2.1 ± 0.9 | 15.5 ± 2.3 | 18.4 ± 1.8 | 0.5 (≈ 1.44 µM) | overall activity in the CHIKV replicon model (CHIKV replicon [1]): moderate inhibition; reduction of ATP level (BHK-CHIKV-NCT cells [2]): 44%; decrease in EGFP marker fluorescence intensity (CHIKV replicon [3]): strongest decrease; decrease in the amount of viable cells (living or dividing) (BHK-CHIKV-NCT cells [4]): > 80%
2 | C=C(C)[C@@H]1CC(=O)[C@H]2[C@H](C1)[C@@H]1C(=O)O[C@@H]3C[C@@]4(C)O[C@H]2C(=O)[C@@H]4[C@H]13 [Compound 6, ineleganolide] | 1.07 ± 0.07 | 1.1 ± 0.05 | 1.09 ± 0.02 | > 12.5 | 247 ± 8 | 247 ± 8 | 247 ± 8 | > 12.5 | 312 ± 8.2 | 312 ± 8.2 | 312 ± 8.2 | > 12.5 | 31.2 ± 2.9 | 30.6 ± 2.6 | 32.3 ± 3.2 | > 12.5 | 1.8 ± 0.6 | 1.9 ± 0.6 | 1.9 ± 0.9 | > 12.5 | decrease in EGFP marker fluorescence intensity (CHIKV replicon [3]): only moderate decreases
3 | C=C(C)C1CCC23OC2C(CC2(C)CC(=O)C(CC(=O)C1)O2)OC3=O (stereo not drawn) [Compound 3, scabrolide D] | 1.1 ± 0.05 | 1.3 ± 0.06 | 1.2 ± 0.05 | > 12.5 | 247 ± 8 | 237 ± 4 | 244 ± 11 | > 12.5 | 312 ± 8.2 | 321 ± 7.8 | 318 ± 7.6 | > 12.5 | 33.6 ± 11.2 | 24.5 ± 6.9 | 35.4 ± 12.4 | > 12.5 | 1.5 ± 0.9 | 1.6 ± 0.8 | 1.7 ± 0.5 | > 12.5 | decrease in EGFP marker fluorescence intensity (CHIKV replicon [3]): inactive
4 | C=C(C)[C@@H]1C/C=C2\C(=O)O[C@@H](C[C@]3(C)CC(=O)[C@H](CC(=O)C1)O3)[C@@H]2O [Compound 1, 5-epi-sinuleptolide] | 1.04 ± 0.08 | 1.09 ± 0.1 | 1.08 ± 0.05 | > 12.5 | 256 ± 12 | 239 ± 5 | 241 ± 7 | > 12.5 | 319 ± 8.1 | 318 ± 7.5 | 315 ± 8.1 | > 12.5 | 33.5 ± 11.2 | 31.2 ± 9.2 | 33.6 ± 11.1 | > 12.5 | 1.9 ± 0.9 | 2.1 ± 0.8 | 1.9 ± 0.4 | > 12.5 | overall activity in the CHIKV replicon model (CHIKV replicon [1]): moderate inhibition; reduction of ATP level (BHK-CHIKV-NCT cells [2]): 39%; decrease in EGFP marker fluorescence intensity (CHIKV replicon [3]): strongest decrease; decrease in the amount of viable cells (living or dividing) (BHK-CHIKV-NCT cells [4]): > 80%
